Measurements as given in PMC9329436, “Optimization of the 4-anilinoquin(az)oline scaffold as epidermal growth factor receptor (EGFR) inhibitors for chordoma utilizing a toxicology profiling assay platform” (Scientific Reports, 2022).

Legend:
U-CH2 chordoma cell line = assay: Cell viability assay (alamarBlue, 72 h), U-CH2; type: cell-based, human; settings: n = 4, 72 h
Outline: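 Compound added in quadruplicate 24 h after plating; cultures maintained in 4:1 IMDM:RPMI, 10% FBS, gel-coated flasks.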

[1] = test system: CH22 patient-derived chordoma cell line; assay: Cell viability assay (alamarBlue, 72 h), CH22; type: cell-based, human; settings: n = 4, 72 h
Outline: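 Patient-derived chordoma lines and WS1 fibroblasts seeded in 384-well plates, dosed in quadruplicate 24 h after plating.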

EGFR = EGFR (Homo sapiens, UniProt P00533); assay: 33PanQinase activity assay; type: biochemical; settings: for Residual activity: EGF-R, singlicate
Chain of EGFR (P00533 25-1210): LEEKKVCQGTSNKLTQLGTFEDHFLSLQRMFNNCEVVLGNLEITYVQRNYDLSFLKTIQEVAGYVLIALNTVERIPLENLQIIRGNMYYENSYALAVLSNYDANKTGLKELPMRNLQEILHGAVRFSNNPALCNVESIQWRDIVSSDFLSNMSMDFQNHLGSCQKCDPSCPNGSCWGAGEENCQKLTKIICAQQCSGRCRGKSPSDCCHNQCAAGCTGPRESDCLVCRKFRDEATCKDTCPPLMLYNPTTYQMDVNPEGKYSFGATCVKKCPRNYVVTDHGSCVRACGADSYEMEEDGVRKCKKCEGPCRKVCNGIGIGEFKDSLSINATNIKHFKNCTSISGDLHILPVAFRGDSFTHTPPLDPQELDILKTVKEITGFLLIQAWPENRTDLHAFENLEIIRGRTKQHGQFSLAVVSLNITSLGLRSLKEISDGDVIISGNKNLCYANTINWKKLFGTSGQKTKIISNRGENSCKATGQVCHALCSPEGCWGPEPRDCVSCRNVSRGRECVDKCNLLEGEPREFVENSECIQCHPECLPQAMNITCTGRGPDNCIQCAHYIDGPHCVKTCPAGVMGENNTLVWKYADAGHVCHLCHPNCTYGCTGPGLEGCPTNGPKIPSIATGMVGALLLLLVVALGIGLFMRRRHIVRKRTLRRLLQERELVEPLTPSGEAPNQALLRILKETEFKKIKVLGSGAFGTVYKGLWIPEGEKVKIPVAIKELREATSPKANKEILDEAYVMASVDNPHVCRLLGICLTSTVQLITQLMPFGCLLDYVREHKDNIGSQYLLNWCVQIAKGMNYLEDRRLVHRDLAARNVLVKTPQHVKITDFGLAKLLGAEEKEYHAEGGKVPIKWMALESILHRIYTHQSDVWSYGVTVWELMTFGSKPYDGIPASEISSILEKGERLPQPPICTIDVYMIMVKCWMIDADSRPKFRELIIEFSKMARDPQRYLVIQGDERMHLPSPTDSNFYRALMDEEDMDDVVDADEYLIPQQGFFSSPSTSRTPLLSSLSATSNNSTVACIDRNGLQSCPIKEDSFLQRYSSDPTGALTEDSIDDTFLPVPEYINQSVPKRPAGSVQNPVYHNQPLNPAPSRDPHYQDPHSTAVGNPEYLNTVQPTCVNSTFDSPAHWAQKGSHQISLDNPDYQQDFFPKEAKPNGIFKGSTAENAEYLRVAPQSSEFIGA
Excerpt: (§1) Table S4. Profiling of two compounds at two concentrations against 320 wild-type protein kinases; singlicate measurement; Residual activities (% of control).

EPHB2 = biological target: T1, EPHB2 (Homo sapiens, UniProt P29323); assay: 33PanQinase activity assay; type: biochemical; settings: for Residual activity: singlicate
T1 sequence (P29323 19-1055): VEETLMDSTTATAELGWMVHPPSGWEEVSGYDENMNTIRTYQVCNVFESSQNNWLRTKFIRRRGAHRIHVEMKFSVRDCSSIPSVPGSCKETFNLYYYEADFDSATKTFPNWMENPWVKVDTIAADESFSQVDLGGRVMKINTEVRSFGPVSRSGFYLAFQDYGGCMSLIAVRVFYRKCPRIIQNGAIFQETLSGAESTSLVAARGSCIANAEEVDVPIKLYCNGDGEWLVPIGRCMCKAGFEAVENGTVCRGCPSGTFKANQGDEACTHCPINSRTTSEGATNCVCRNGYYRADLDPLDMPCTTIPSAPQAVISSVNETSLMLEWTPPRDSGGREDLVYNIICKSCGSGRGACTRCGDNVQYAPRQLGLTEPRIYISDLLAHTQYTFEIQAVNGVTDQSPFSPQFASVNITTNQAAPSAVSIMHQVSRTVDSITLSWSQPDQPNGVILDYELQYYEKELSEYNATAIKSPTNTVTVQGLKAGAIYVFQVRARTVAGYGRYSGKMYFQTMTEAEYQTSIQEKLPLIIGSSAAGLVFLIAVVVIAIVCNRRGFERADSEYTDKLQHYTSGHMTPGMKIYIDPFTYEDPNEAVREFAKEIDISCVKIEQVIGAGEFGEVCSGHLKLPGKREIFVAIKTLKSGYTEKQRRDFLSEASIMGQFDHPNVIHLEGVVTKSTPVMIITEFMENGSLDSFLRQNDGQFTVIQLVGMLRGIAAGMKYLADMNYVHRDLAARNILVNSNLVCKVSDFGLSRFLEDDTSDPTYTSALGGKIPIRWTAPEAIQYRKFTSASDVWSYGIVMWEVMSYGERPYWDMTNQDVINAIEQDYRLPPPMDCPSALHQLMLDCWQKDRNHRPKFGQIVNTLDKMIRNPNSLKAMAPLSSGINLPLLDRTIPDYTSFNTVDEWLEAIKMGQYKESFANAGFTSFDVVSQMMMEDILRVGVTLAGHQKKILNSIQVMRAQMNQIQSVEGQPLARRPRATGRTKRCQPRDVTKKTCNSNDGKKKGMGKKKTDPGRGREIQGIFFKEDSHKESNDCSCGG
Excerpt: as §1

ERBB4 = ERBB4 (Homo sapiens, UniProt Q15303); assay: 33PanQinase activity assay; type: biochemical; settings: for Residual activity: singlicate
Chain of ERBB4 (Q15303 26-1308): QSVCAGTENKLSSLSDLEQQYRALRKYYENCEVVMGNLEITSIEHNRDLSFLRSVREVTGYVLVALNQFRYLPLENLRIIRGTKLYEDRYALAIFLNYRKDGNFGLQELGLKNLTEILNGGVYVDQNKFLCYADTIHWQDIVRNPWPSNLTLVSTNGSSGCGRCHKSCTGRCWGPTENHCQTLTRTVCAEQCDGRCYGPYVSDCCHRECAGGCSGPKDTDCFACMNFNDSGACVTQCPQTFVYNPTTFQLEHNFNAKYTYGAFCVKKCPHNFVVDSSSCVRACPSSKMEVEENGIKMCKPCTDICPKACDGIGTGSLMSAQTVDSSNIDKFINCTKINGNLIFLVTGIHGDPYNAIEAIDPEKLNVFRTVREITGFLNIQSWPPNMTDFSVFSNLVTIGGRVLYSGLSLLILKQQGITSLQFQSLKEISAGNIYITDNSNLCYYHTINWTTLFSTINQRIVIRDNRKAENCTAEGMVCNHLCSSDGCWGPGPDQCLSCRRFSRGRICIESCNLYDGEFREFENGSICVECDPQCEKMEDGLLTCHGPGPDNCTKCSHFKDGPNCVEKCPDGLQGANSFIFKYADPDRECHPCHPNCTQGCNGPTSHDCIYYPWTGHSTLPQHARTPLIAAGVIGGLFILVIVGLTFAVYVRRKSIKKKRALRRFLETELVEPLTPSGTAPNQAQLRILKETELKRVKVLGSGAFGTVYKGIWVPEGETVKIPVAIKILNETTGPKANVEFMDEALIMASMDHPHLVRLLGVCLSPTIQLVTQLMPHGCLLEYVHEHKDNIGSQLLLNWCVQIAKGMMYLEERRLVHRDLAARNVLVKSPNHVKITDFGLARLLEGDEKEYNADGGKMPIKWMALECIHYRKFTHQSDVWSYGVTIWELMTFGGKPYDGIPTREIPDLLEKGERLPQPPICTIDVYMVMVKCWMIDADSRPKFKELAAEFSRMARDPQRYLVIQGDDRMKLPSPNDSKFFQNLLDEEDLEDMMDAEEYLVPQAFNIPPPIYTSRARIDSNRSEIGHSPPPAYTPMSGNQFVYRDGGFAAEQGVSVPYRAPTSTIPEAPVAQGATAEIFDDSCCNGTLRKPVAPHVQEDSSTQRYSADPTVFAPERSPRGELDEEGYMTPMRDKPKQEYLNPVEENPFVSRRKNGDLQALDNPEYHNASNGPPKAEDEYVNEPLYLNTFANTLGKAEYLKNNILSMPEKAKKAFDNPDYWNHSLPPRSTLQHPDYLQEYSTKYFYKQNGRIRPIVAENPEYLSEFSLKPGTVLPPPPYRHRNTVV
Excerpt: as §1

LCK = LCK (Homo sapiens, UniProt P06239); assay: 33PanQinase activity assay; type: biochemical; settings: for Residual activity: LCK, singlicate
Chain of LCK (P06239 whole entry): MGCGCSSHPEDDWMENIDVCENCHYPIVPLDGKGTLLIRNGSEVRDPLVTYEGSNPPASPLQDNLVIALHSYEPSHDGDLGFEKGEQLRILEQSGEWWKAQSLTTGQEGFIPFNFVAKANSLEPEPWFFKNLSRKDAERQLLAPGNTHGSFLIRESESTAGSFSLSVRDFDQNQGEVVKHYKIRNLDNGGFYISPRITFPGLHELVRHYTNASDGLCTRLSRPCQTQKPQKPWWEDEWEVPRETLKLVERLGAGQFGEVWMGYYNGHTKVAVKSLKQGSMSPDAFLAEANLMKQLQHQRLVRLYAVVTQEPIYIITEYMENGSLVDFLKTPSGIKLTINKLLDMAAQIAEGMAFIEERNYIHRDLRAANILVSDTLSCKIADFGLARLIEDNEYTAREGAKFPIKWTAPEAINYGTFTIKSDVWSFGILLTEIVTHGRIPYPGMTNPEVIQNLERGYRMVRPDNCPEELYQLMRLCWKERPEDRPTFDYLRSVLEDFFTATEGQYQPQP
Excerpt: as §1

MAP4K5 = MAP4K5 (Homo sapiens, UniProt Q9Y4K4); assay: 33PanQinase activity assay; type: biochemical; settings: for Residual activity: singlicate
Excerpt: as §1

MINK1 = MINK1 (Homo sapiens, UniProt Q8N4C8); assay: 33PanQinase activity assay; type: biochemical; settings: for Residual activity: singlicate
Chain of MINK1 (Q8N4C8 whole entry): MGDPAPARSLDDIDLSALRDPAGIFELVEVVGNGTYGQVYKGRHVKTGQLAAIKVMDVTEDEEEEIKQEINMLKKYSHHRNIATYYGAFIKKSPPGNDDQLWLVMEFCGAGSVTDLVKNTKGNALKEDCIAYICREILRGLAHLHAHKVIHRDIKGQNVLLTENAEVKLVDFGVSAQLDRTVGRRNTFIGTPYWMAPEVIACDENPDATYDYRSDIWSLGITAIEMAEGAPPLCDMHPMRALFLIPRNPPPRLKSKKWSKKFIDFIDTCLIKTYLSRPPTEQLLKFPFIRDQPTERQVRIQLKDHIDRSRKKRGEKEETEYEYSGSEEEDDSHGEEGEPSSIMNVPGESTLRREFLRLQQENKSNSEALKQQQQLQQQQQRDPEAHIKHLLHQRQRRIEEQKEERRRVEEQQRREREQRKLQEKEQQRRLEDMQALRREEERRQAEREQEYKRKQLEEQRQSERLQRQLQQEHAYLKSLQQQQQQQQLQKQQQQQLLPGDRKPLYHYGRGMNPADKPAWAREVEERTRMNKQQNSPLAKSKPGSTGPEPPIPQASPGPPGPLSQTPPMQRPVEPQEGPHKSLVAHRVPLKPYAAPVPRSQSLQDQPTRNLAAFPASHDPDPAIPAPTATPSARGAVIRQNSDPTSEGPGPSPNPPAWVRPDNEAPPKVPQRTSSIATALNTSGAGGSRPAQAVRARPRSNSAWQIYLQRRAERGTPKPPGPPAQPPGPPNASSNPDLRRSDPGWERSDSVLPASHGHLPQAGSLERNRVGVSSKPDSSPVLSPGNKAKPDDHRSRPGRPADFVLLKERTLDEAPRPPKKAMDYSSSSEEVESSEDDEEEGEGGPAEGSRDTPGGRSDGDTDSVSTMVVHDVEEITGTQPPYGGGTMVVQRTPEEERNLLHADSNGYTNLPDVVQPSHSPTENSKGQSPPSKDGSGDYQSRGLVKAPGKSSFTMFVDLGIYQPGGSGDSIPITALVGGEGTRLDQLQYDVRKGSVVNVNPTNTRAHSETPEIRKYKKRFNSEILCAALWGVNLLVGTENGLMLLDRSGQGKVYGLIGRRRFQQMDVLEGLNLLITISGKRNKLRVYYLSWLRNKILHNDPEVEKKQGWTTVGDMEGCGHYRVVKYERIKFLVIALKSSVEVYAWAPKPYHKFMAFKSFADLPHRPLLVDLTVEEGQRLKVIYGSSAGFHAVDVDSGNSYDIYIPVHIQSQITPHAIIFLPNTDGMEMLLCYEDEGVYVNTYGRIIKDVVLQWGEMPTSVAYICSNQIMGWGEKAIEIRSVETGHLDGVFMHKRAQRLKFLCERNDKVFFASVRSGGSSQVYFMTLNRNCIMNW
Excerpt: as §1

MKNK2 = MKNK2 (Homo sapiens, UniProt Q9HBH9); assay: 33PanQinase activity assay; type: biochemical; settings: for Residual activity: singlicate
Chain of MKNK2 (Q9HBH9 whole entry): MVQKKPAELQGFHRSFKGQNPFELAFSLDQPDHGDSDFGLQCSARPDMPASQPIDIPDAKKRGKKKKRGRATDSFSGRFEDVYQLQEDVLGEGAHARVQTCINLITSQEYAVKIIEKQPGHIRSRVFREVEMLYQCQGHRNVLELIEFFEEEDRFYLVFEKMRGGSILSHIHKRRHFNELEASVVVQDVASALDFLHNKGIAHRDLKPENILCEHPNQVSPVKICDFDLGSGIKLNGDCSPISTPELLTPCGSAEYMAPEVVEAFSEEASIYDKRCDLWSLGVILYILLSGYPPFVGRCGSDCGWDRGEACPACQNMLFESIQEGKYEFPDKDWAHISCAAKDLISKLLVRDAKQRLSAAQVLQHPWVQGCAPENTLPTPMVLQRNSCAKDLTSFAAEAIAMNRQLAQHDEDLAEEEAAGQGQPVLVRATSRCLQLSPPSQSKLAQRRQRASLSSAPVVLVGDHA
Excerpt: as §1

PRKG2 = biological target: T2, PRKG2 (Homo sapiens, UniProt Q13237); assay: 33PanQinase activity assay; type: biochemical; settings: for Residual activity, PRKG2: kinase PRKG2, singlicate
T2 sequence (Q13237 1-762): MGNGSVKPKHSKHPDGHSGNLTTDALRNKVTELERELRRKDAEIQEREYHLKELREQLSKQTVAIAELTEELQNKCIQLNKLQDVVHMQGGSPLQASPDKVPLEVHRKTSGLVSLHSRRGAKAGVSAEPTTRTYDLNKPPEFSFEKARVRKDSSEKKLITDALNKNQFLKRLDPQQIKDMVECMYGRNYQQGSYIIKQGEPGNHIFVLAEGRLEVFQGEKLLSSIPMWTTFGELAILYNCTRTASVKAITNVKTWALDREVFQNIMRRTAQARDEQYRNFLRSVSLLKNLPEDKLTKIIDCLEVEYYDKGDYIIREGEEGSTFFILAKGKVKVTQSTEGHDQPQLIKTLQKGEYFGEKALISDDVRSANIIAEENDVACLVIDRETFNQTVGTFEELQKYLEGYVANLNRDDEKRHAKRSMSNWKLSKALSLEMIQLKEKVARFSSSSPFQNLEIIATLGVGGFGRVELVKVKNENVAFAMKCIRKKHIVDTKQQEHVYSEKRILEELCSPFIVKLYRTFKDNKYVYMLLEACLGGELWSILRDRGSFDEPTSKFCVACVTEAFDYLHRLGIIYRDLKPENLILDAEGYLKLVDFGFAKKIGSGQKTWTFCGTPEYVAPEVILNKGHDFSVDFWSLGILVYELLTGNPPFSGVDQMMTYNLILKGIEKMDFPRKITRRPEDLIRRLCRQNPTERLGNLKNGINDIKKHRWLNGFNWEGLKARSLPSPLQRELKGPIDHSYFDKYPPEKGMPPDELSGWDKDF
Excerpt: as §1

SLK = SLK (Homo sapiens, UniProt Q9H2G2); assay: 33PanQinase activity assay; type: biochemical; settings: for SLK inhibition: 10 μM; for Residual activity, SLK: kinase SLK, singlicate
Excerpt: as §1

Compound `C#Cc1cc(Nc2ncnc3cc(I)ccc23)ccc1Cl` [Compound 41] has an IC50 (U-CH2 chordoma cell line) of 16 µM, an IC50 [1] of 0.48 µM and an EGFR inhibition (EGFR; 1 μM) of over 50%. For the same compound, the EGFR inhibition (EGFR; 10 μM) was over 50%, the Residual activity (EGFR; 1.0E-06 M) was 8 % of control and the Residual activity (EGFR; 1.0E-07 M) was 28 % of control. The Residual activity (EPHB2; EPHB2, 1.0E-06 M) was 58 % of control, the Residual activity (EPHB2; EPHB2, 1.0E-07 M) was 79 % of control and the ERBB4 inhibition (ERBB4; 10 μM) was over 50%. The Residual activity (ERBB4; ERBB4, 1.0E-06 M) was 44 % of control, the Residual activity (ERBB4; ERBB4, 1.0E-07 M) was 92 % of control and the Residual activity (LCK; 1.0E-06 M) was 59 % of control. For the same compound, the Residual activity (LCK; 1.0E-07 M) was 78 % of control, the Residual activity (MAP4K5; MAP4K5, 1.0E-06 M) was 70 % of control and the Residual activity (MAP4K5; MAP4K5, 1.0E-07 M) was 101 % of control. For the same compound, the Residual activity (MINK1; MINK1, 1.0E-06 M) was 54 % of control, the Residual activity (MINK1; MINK1, 1.0E-07 M) was 64 % of control and the Residual activity (MKNK2; MKNK2, 1.0E-06 M) was 74 % of control. For the same compound, the Residual activity (MKNK2; MKNK2, 1.0E-07 M) was 92 % of control, the PRKG2 inhibition (PRKG2; 10 μM) was over 50% and the “Residual activity, PRKG2” value (PRKG2; assay conc. 1.0E-06 M) was 20 % of control. For the same compound, the “Residual activity, PRKG2” value (PRKG2; assay conc. 1.0E-07 M) was 100 % of control, the SLK inhibition (SLK) was over 50% and the “Residual activity, SLK” value (SLK; assay conc. 1.0E-06 M) was 32 % of control. The “Residual activity, SLK” value (SLK; assay conc. 1.0E-07 M) was 67 % of control.

Work on `C#Cc1cc(Nc2ncnc3cc(OC)c(OC)cc23)ccc1Cl` [Compound 45] yielded an IC50 (U-CH2 chordoma cell line) of 35 µM, an IC50 [1] of 1.2 µM and an EGFR inhibition (EGFR; 1 μM) of over 50%. The EGFR inhibition (EGFR; 10 μM) was over 50%, the Residual activity (EGFR; 1.0E-06 M) was 0 % of control and the Residual activity (EGFR; 1.0E-07 M) was 2 % of control. The EPHB2 inhibition (EPHB2; 10 μM) was over 50%, the Residual activity (EPHB2; EPHB2, 1.0E-06 M) was 11 % of control and the Residual activity (EPHB2; EPHB2, 1.0E-07 M) was 50 % of control. The ERBB4 inhibition (ERBB4; 1 μM) was “moderate inhibition”, the Residual activity (ERBB4; ERBB4, 1.0E-06 M) was 7 % of control and the Residual activity (ERBB4; ERBB4, 1.0E-07 M) was 34 % of control. For the same compound, the LCK inhibition (LCK; 10 μM) was over 50%, the Residual activity (LCK; 1.0E-06 M) was 36 % of control and the Residual activity (LCK; 1.0E-07 M) was 94 % of control. For the same compound, the MAP4K5 inhibition (MAP4K5; 10 μM) was over 50%, the Residual activity (MAP4K5; MAP4K5, 1.0E-06 M) was 22 % of control and the Residual activity (MAP4K5; MAP4K5, 1.0E-07 M) was 108 % of control. For the same compound, the MINK1 inhibition (MINK1; 10 μM) was over 50%, the Residual activity (MINK1; MINK1, 1.0E-06 M) was 29 % of control and the Residual activity (MINK1; MINK1, 1.0E-07 M) was 86 % of control. The MKNK2 inhibition (MKNK2; 10 μM) was over 50%, the Residual activity (MKNK2; MKNK2, 1.0E-06 M) was 46 % of control and the Residual activity (MKNK2; MKNK2, 1.0E-07 M) was 78 % of control. For the same compound, the “Residual activity, PRKG2” value (PRKG2; assay conc. 1.0E-06 M) was 80 % of control, the “Residual activity, PRKG2” value (PRKG2; assay conc. 1.0E-07 M) was 118 % of control and the SLK inhibition (SLK) was over 50%. The “Residual activity, SLK” value (SLK; assay conc. 1.0E-06 M) was 18 % of control and the “Residual activity, SLK” value (SLK; assay conc. 1.0E-07 M) was 76 % of control.
